Laboratory results taken from US8163793B2, “Proline derivatives” (Hoffman-La Roche Inc., priority 2009, dated 2012).

Assays:
[1] = target: Cathepsin S (UniProt P25774); experiment: Cathepsin enzyme inhibition assay (fluorogenic peptide substrate Z-Val-Val-Arg-AMC), Cathepsin S; assay type: biochemical, human and mouse; conditions: enzyme 1 nM, substrate 20 μM, pH 6.5; read-out: CatS IC50
Summary of the method: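 Human or mouse cathepsin S (1 nM) was run in 100 mM potassium phosphate pH 6.5 with 5 mM EDTA, 0.001% Triton X-100 and 5 mM DTT. The rise in AMC fluorescence from cleavage was measured, and IC50 values were calculated by standard methods and expressed in μM.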

[2] = target: Cat L (UniProt P07711); experiment: Cathepsin enzyme inhibition assay (fluorogenic peptide substrate Z-Val-Val-Arg-AMC), Cathepsin L; assay type: biochemical, human and mouse; conditions: enzyme 1 nM, substrate 20 μM, pH 6.5; read-out: CatL IC50
Summary of the method: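 Cathepsin L at 1 nM was mixed with compound, then started with 20 μM Z-Val-Val-Arg-AMC in pH 6.5 potassium phosphate with EDTA, Triton X-100 and 5 mM DTT. AMC fluorescence (ex 360/em 465 nm) was followed over 20 min. IC50 is given in μM.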

SMILES	IC50 [1] [nM]	IC50 [2] [nM]
N#CC1(NC(=O)[C@@H]2C[C@@H](S(=O)(=O)c3ccc(OCC(F)(F)F)cc3Cl)CN2C(=O)C2(c3cccc(Br)c3)CC2)CC1 [Example 332, (2S,4R)-1-[1-(3-Bromo-phenyl)-cyclopropanecarbonyl]-4-[2-chloro-4-(2,2,2-trifluoro-ethoxy)-benzenesulfonyl]-pyrrolidine-2-carboxylic acid (1-cyano-cyclopropyl)-amide]	0.195	580
COc1cccc(-n2nc(C)cc2N2C[C@H](S(=O)(=O)c3ccccc3C(F)(F)F)C[C@H]2C(=O)NC2(C#N)CC2)c1 [Example 333, (2S,4R)-1-[2-(3-Methoxy-phenyl)-5-methyl-2H-pyrazol-3-yl]-4-(2-trifluoromethyl-benzenesulfonyl)-pyrrolidine-2-carboxylic acid (1-cyano-cyclopropyl)-amide]	1.9	7980
COc1cccc(-n2nc(C)cc2N2C[C@H](S(=O)(=O)c3ccccc3C(F)(F)F)C[C@@H]2C(=O)NC2(C#N)CC2)c1 [Example 334, (2R,4R)-1-[2-(3-Methoxy-phenyl)-5-methyl-2H-pyrazol-3-yl]-4-(2-trifluoromethyl-benzenesulfonyl)-pyrrolidine-2-carboxylic acid (1-cyano-cyclopropyl)-amide]	780	≥ 25000
N#CC1(NC(=O)[C@@H]2C[C@@H](S(=O)(=O)c3ccccc3C(F)(F)F)CN2c2nnc(C(F)(F)F)s2)CC1 [Example 335, (2S,4R)-4-(2-Trifluoromethyl-benzenesulfonyl)-1-(5-trifluoromethyl-[1,3,4]thiadiazol-2-yl)-pyrrolidine-2-carboxylic acid (1-cyano-cyclopropyl)-amide]	0.484	≥ 25000
Cc1cc(N2C[C@H](S(=O)(=O)c3ccccc3C(F)(F)F)C[C@H]2C(=O)NC2(C#N)CC2)n(CCc2ccccc2)n1 [Example 337, (2S,4R)-1-(5-Methyl-2-phenethyl-2H-pyrazol-3-yl)-4-(2-trifluoromethyl-benzenesulfonyl)-pyrrolidine-2-carboxylic acid (1-cyano-cyclopropyl)-amide]	1.65	13000
Cc1cc(N2C[C@H](S(=O)(=O)c3ccccc3C(F)(F)F)C[C@@H]2C(=O)NC2(C#N)CC2)n(CCc2ccccc2)n1 [Example 338, (2R,4R)-1-(5-Methyl-2-phenethyl-2H-pyrazol-3-yl)-4-(2-trifluoromethyl-benzenesulfonyl)-pyrrolidine-2-carboxylic acid (1-cyano-cyclopropyl)-amide]	375	≥ 25000
Cc1cc(N2C[C@H](S(=O)(=O)c3ccccc3C(F)(F)F)C[C@H]2C(=O)NC2(C#N)CC2)n(C(C)(C)C)n1 [Example 339, (2S,4R)-1-(2-tert-Butyl-5-methyl-2H-pyrazol-3-yl)-4-(2-trifluoromethyl-benzenesulfonyl)-pyrrolidine-2-carboxylic acid (1-cyano-cyclopropyl)-amide]	62.5	≥ 25000
Cc1cc(N2C[C@H](S(=O)(=O)c3ccccc3C(F)(F)F)C[C@H]2C(=O)NC2(C#N)CC2)n(CC(C)C)n1 [Example 340, (2S,4R)-1-(2-Isobutyl-5-methyl-2H-pyrazol-3-yl)-4-(2-trifluoromethyl-benzenesulfonyl)-pyrrolidine-2-carboxylic acid (1-cyano-cyclopropyl)-amide]	0.975	26400
Cc1cc(N2C[C@H](S(=O)(=O)c3ccccc3C(F)(F)F)C[C@@H]2C(=O)NC2(C#N)CC2)n(CC(C)C)n1 [Example 341, (2R,4R)-1-(2-Isobutyl-5-methyl-2H-pyrazol-3-yl)-4-(2-trifluoromethyl-benzenesulfonyl)-pyrrolidine-2-carboxylic acid (1-cyano-cyclopropyl)-amide]	150	≥ 25000
COCCOc1ccc(S(=O)(=O)[C@@H]2C[C@@H](C(=O)NC3(C#N)CC3)N(C(=O)C3(c4ccc(Cl)cc4)CC3)C2)c(Cl)c1 [Example 342, (2S,4R)-4-[2-Chloro-4-(2-methoxy-ethoxy)-benzenesulfonyl]-1-[1-(4-chloro-phenyl)-cyclopropanecarbonyl]-pyrrolidine-2-carboxylic acid (1-cyano-cyclopropyl)-amide]	0.08	49.5
N#CC1(NC(=O)C2CC(S(=O)(=O)c3ccccc3C(F)(F)F)CN2c2ccccc2-c2ccccc2)CC1 (stereo not shown) [Example 343, 1-Biphenyl-2-yl-4-(2-trifluoromethyl-benzenesulfonyl)-pyrrolidine-2-carboxylic acid (1-cyano-cyclopropyl)-amide]	99.3	≥ 25000
CC1(C(=O)N2C[C@H](S(=O)(=O)c3ccc(F)cc3C(F)(F)F)C[C@H]2C(=O)NC2(C#N)CC2)CC1 [Example 344, (2S,4R)-4-(4-Fluoro-2-trifluoromethyl-benzenesulfonyl)-1-(1-methyl-cyclopropanecarbonyl)-pyrrolidine-2-carboxylic acid (1-cyano-cyclopropyl)-amide]	0.54	≥ 25000
N#CC1(NC(=O)C2CC(S(=O)(=O)c3ccccc3C(F)(F)F)CN2c2cccc3ccccc23)CC1 (stereo not shown) [Example 345, 1-Naphthalen-1-yl-4-(2-trifluoromethyl-benzenesulfonyl)-pyrrolidine-2-carboxylic acid (1-cyano-cyclopropyl)-amide]	0.915	70300
N#CC1(NC(=O)[C@@H]2C[C@@H](S(=O)(=O)c3ccc(OCC(F)(F)F)cc3Cl)CN2C(=O)C2(c3ccc(Br)cc3)OCCO2)CC1 [Example 346, (2S,4R)-1-[2-(4-Bromo-phenyl)-[1,3]dioxolane-2-carbonyl]-4-[2-chloro-4-(2,2,2-trifluoro-ethoxy)-benzenesulfonyl]-pyrrolidine-2-carboxylic acid (1-cyano-cyclopropyl)-amide]	0.101	28.5
N#CC1(NC(=O)[C@@H]2C[C@@H](S(=O)(=O)c3ccc(OCC(F)(F)F)cc3Cl)CN2C(=O)C2(c3cccc4ccccc34)CC2)CC1 [Example 347, (2S,4R)-4-[2-Chloro-4-(2,2,2-trifluoro-ethoxy)-benzenesulfonyl]-1-(1-naphthalen-1-yl-cyclopropanecarbonyl)-pyrrolidine-2-carboxylic acid (1-cyano-cyclopropyl)-amide]	0.855	60
N#CC1(NC(=O)[C@@H]2C[C@@H](S(=O)(=O)c3ccc(OCC(F)(F)F)cc3Cl)CN2C(=O)C2(c3ccc4ccccc4c3)CC2)CC1 [Example 348, (2S,4R)-4-[2-Chloro-4-(2,2,2-trifluoro-ethoxy)-benzenesulfonyl]-1-(1-naphthalen-2-yl-cyclopropanecarbonyl)-pyrrolidine-2-carboxylic acid (1-cyano-cyclopropyl)-amide]	0.17	51
N#CC1(NC(=O)[C@@H]2C[C@@H](S(=O)(=O)c3ccc(-n4cnc5cnccc54)cc3Cl)CN2C(=O)C2(c3ccc(Cl)cc3)CC2)CC1 [Example 349, (2S,4R)-4-(2-Chloro-4-imidazo[4,5-c]pyridin-1-yl-benzenesulfonyl)-1-[1-(4-chloro-phenyl)-cyclopropanecarbonyl]-pyrrolidine-2-carboxylic acid (1-cyano-cyclopropyl)-amide]	0.03	220
N#CC1(NC(=O)[C@@H]2C[C@@H](S(=O)(=O)c3ccc(-n4ccc5ncnc-5c4)cc3Cl)CN2C(=O)C2(c3ccc(Cl)cc3)CC2)CC1 [Example 350, (2S,4R)-4-(2-Chloro-4-imidazo[4,5-c]pyridin-5-yl-benzenesulfonyl)-1-[1-(4-chloro-phenyl)-cyclopropanecarbonyl]-pyrrolidine-2-carboxylic acid (1-cyano-cyclopropyl)-amide]	0.06	260
Cc1cc(-n2nc(C)cc2N2C[C@H](S(=O)(=O)c3ccccc3C(F)(F)F)C[C@H]2C(=O)NC2(C#N)CC2)cc(C)n1 [Example 351]	19.5	≥ 25000
Cc1cc(N2C[C@H](S(=O)(=O)c3ccccc3C(F)(F)F)C[C@H]2C(=O)NC2(C#N)CC2)n(-c2ccnc3ccccc23)n1 [Example 352, (2S,4R)-1-(5-Methyl-2-quinolin-4-yl-2H-pyrazol-3-yl)-4-(2-trifluoromethyl-benzenesulfonyl)-pyrrolidine-2-carboxylic acid (1-cyano-cyclopropyl)-amide]	0.25	7230
Cc1cc(N2C[C@H](S(=O)(=O)c3ccccc3Cl)C[C@H]2C(=O)NC2(C#N)CC2)n(C2CCC2)n1 [Example 353, (2S,4R)-4-(2-Chloro-benzenesulfonyl)-1-(2-cyclobutyl-5-methyl-2H-pyrazol-3-yl)-pyrrolidine-2-carboxylic acid (1-cyano-cyclopropyl)-amide]	0.99	13500
N#CC1(NC(=O)C2CC(S(=O)(=O)c3ccccc3C(F)(F)F)CN2c2cccc(C(F)(F)F)c2)CC1 (stereo not shown) [Example 354, 4-(2-Trifluoromethyl-benzenesulfonyl)-1-(3-trifluoromethyl-phenyl)-pyrrolidine-2-carboxylic Acid (1-cyano-cyclopropyl)-amide]	0.175	≥ 25000
CC(C)(C)c1ccccc1N1CC(S(=O)(=O)c2ccccc2C(F)(F)F)CC1C(=O)NC1(C#N)CC1 (stereo not shown) [Example 355, 1-(2-tert-Butyl-phenyl)-4-(2-trifluoromethyl-benzenesulfonyl)-pyrrolidine-2-carboxylic acid (1-cyano-cyclopropyl)-amide]	2450	≥ 25000
